Values quoted from earlier work, collected in PubChem BioAssay AID1259409 (Chemical Carcinogenesis Research Information System (CCRIS), 2018).
“And” between values parts separate entries of the source, which are not always exact repeats. Equal values may be shown once.

Tested on: rodent chemically induced tumor inhibition, incidence and multiplicity
Test: CCRIS tumor inhibitor studies
Conditions: Route [Inhibitor]: ORAL, Species: RAT

CC1=C(/C=C/C(C)=C/C=C/C(C)=C/C(=O)Nc2ccc(O)cc2)C(C)(C)CCC1
tumour outcome (control, treated, inhibition, significance) (Carcinogen: N-METHYL-N'-NITROSOUREA, 684-93-5, Dose [Inhibitor]: 0, 782 MG/KG IN DIET FOR DURATION OF STUDY BEGINNING 60 D PRIOR TO CARCINOGEN DOSE (STUDY DURATION: 240 D), Strain/Sex: SPRAGUE-DAWLEY/FEMALE, Target Tissue: Type of Lesion: MAMMARY GLAND: TUMOR, Dose [Carcinogen]: 50 MG/KG BW ONCE, Promoter: NONE USED): 80%, 28%, 65%, p<0.oo5 and 68%, 42%, 38%, p<0.005 | tumour outcome (control, treated, inhibition, significance) (Carcinogen: N-METHYL-N-NITROSOUREA [684-93-5], Dose [Inhibitor]: 2 MMOL/KG IN DIET FOR 6 WK BEGINNING 4 WK POST LAST CARCINOGEN DOSE (STUDY DURATION: 11 WK), Strain/Sex: SPRAGUE-DAWLEY/FEMALE, Target Tissue: Type of Lesion: MAMMARY GLAND: CARCINOMA, Dose [Carcinogen]: 50 MG/KG BW IP 1X/WK FOR 2 WK (STUDY DURATION: 11 WK), Promoter: NONE): 95.4%, 87.5%, 8.3% | tumour outcome (control, treated, inhibition, significance) (Carcinogen: N-METHYL-N-NITROSOUREA [684-93-5], Dose [Inhibitor]: 2 MMOL/KG IN DIET FOR 10 WK BEGINNING 2 D POST LAST CARCINOGEN DOSE (STUDY DURATION: 11 WK), Strain/Sex: SPRAGUE-DAWLEY/FEMALE, Target Tissue: Type of Lesion: MAMMARY GLAND: CARCINOMA, Dose [Carcinogen]: 50 MG/KG BW IP 1X/WK FOR 2 WK (STUDY DURATION: 11 WK), Promoter: NONE): 95.4%, 45.0%, 53%, p<0.05 | tumour outcome (control, treated, inhibition, significance) (Carcinogen: N-METHYL-N-NITROSOUREA [684-93-5], Dose [Inhibitor]: 196 MG/KG DIET BEGINNING 7 D PRIOR TO CARCINOGEN DOSE (STUDY DURATION: 187 D), Strain/Sex: SPRAGUE-DAWLEY/FEMALE, Target Tissue: Type of Lesion: MAMMARY GLAND: ADENOCARCINOMA, Dose [Carcinogen]: 50 MG/KG BW ONCE AT 100 D OF AGE): 23/40 (57%), 17/40 (43%), 24.6%,p<0.01 | tumour outcome (control, treated, inhibition, significance) (Carcinogen: N-METHYL-N-NITROSOUREA [684-93-5], Dose [Inhibitor]: 586 MG/KG DIET BEGINNING 3 D POST-CARCINOGEN DOSE (STUDY DURATION: 150 D), Strain/Sex: SPRAGUE-DAWLEY/FEMALE, Target Tissue: Type of Lesion: MAMMARY GLAND: ADENOCARCINOMA, Dose [Carcinogen]: 50 MG/KG BW ONCE AT 50 D OF AGE): 25/25 (100%), 24/25 (96%), 4%, not significant | tumour outcome (control, treated, inhibition, significance) (Carcinogen: N-METHYL-N-NITROSOUREA, 684-93-5, Dose [Inhibitor]: 0, 1 MMOL/KG IN DIET FOR 7 MO BEGINNING 7 MO POST CARCINOGEN DOSE (STUDY DURATION: 14 MO), Strain/Sex: LOBUND WISTAR/MALE, Target Tissue: Type of Lesion: PROSTATE: ADENOCARCINOMA, Dose [Carcinogen]: 30 MG/KG BW ONCE, Promoter: TESTOSTERONE PROPIONATE, 57-85-2): 16/18 (89%), 4/19 (21%), 76%, p<0.001 | tumour outcome (control, treated, inhibition, significance) (Carcinogen: N-METHYL-N-NITROSOUREA, 684-93-5, Dose [Inhibitor]: 0, 328 MG/KG OF DIET FOR DURATION OF STUDY BEGINNING 1 WK PRIOR TO CARCINOGEN TREATMENT (STUDY DURATION: 117 D), Strain/Sex: SPRAGUE-DAWLEY/FEMALE, Target Tissue: Type of Lesion: MAMMARY GLAND: ADENOCARCINOMA, Dose [Carcinogen]: 50 MG/KG BW ONCE, Promoter: NONE USED): 100%, 84%, 16%, not significant | tumour outcome (control, treated, inhibition, significance) (Carcinogen: N-METHYL-N-NITROSOUREA, 684-93-5, Dose [Inhibitor]: 0, 391 MG/KG DIET BEGINNING AFTER THE SURGICAL REMOVAL OF THE FIRST PALPABLE TUMOR (STUDY DURATION: LIFETIME), Strain/Sex: SPRAGUE-DAWLEY/FEMALE, Target Tissue: Type of Lesion: MAMMARY GLAND: TUMOR, Dose [Carcinogen]: 35 MG/KG ONCE AT 50 DAYS OF AGE, Promoter: NONE USED): 93%, 95%, -2%, not calculated | tumour outcome (control, treated, inhibition, significance) (Carcinogen: N-METHYL-N-NITROSOUREA, 684-93-5, Dose [Inhibitor]: 0, 782 MG/KG DIET BEGINNING AFTER THE SURGICAL REMOVAL OF THE FIRST PALPABLE TUMOR (STUDY DURATION: LIFETIME), Strain/Sex: SPRAGUE-DAWLEY/FEMALE, Target Tissue: Type of Lesion: MAMMARY GLAND: TUMOR, Dose [Carcinogen]: 35 MG/KG ONCE AT 50 DAYS OF AGE, Promoter: NONE USED): 93%, 89%, 4%, not calculated | tumour outcome (control, treated, inhibition, significance) (Carcinogen: N-METHYL-N-NITROSOUREA, 684-93-5, Dose [Inhibitor]: 0, 782 MG/KG DIET REDUCED TO 391 MG/KG DIET 2 WK POST CARCINOGEN DOSE (STUDY DURATION: 450 D), Strain/Sex: WISTAR-UNILEVER/MALE, Target Tissue: Type of Lesion: PROSTATE/SEMINAL VESICLE: ADENOCARCINOMA, Dose [Carcinogen]: 50 MG/KG BW ONCE, Promoter: TESTOSTERONE PROPIONATE, 57-85-2): 67%, 62%, 7%, not significant | tumour outcome (control, treated, inhibition, significance) (Carcinogen: N-METHYL-N-NITROSOUREA, 684-93-5, Dose [Inhibitor]: 0, 782 MG/KG OF CASEIN-BASED AIN-76A DIET FOR DURATION OF STUDY BEGINNING 7 D POST CARCINOGEN DOSE (STUDY DURATION: 25 W, Strain/Sex: F344/FEMALE, Target Tissue: Type of Lesion: MAMMARY GLAND: TUMOR, Dose [Carcinogen]: 45 MG/KG BW ONCE AT 5O D OF AGE, Promoter: NONE USED): 18/25 (72%), 20/25 (80%), -11%, not significant | tumour outcome (control, treated, inhibition, significance) (Carcinogen: N-METHYL-N-NITROSOUREA, 684-93-5, Dose [Inhibitor]: 0, 782 MG/KG OF DIET FOR DURATION OF STUDY BEGINNING 1 WK PRIOR TO CARCINOGEN TREATMENT (STUDY DURATION: 117 D), Strain/Sex: SPRAGUE-DAWLEY/FEMALE, Target Tissue: Type of Lesion: MAMMARY GLAND: ADENOCARCINOMA, Dose [Carcinogen]: 50 MG/KG BW ONCE, Promoter: NONE USED): 100%, 42%, 58%, not calculated | tumour outcome (control, treated, inhibition, significance) (Carcinogen: N-METHYL-N-NITROSOUREA, 684-93-5, Dose [Inhibitor]: 0, 782 MG/KG OF GRAIN-BASED NIH-07 DIET FOR DURATION OF STUDY BEGINNING 7 D PRIOR TO CARCINOGEN DOSE (STUDY DURATION: 26, Strain/Sex: F344/FEMALE, Target Tissue: Type of Lesion: MAMMARY GLAND: TUMOR, Dose [Carcinogen]: 45 MG/KG BW ONCE AT 50 D OF AGE, Promoter: NONE USED): 13/25 (52%), 7/25 (28%), 46%, not significant
